Columns and labels:
wtKIT [1] = biological target: T1, wtKIT (Homo sapiens, UniProt P10721); experiment: HTRF biochemical assay, wtKIT (phosphorylation of a peptide substrate); conditions: Table 4
T1 construct: 1888289AM in the reaction mixtures
Outline: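 wtKIT (5.0 nM) phosphorylating 1 µM FAM-labelled peptide with 400 µM ATP and 10 mM MnCl2 in 100 mM HEPES pH 7.5, 1% DMSO, 3 h at 25 °C. EDTA quench; phosphopeptide detected with anti-phosphotyrosine antibody by HTRF. Enzyme titrated for 10-20% substrate conversion.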

wtKIT [2] = biological target: T1, wtKIT; experiment: Caliper biochemical assay, wtKIT; conditions: Table 6, read-out: KIT Biochemical IC50 avg
Outline: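 Enzyme (5.0 nM wtKIT), 1 μM FAM-labelled peptide, 400 μM ATP and 10 mM MnCl2 in HEPES pH 7.5 with 1% DMSO, incubated 3 h at 25° C. EDTA quench; substrate and phosphoproduct separated by microfluidic electrophoresis and quantified by fluorescence.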

[3] = tested on: KIT phosphorylation in M-07e cells; experiment: Cell-based KIT phosphorylation in M-07e cells by pKIT ELISA; set-up: species or system human; conditions: SCF stimulation
Experimental: Exemplary compounds were tested for ability to inhibit KIT phosphorylation using M-07e cells as monitored by pKIT ELISA. M-07e cells are also represented as M-07E, M-07e, M07-e, M07e, Mo7e, MO7e, M07E and MO7E. Assay procedures and results are described below.
Part I—Procedures for Determining KIT Inhibition inM-07e Cells Using pKTT ELISA Reagents and consumables: • M-07e cells: Initially obtained from Accegen, cat #ABC-TC1313 • p-cKIT Capture ELISA antibody: anti-Human Phospho-CD117/c-kit, R&D cat #DYC3527-5 • Anti-pY-HIRP antibody: R&D cat #DYC3527-5 • 25× wash buffer: Quantikine ELISA Wash Buffer 1, R&D cat #WA126 • PBS: R&D cat #DY006 • 96 well ELISA plates: Clear Polystyrene Microplates, R&D Cat #DY990 • 96 well Tissue culture plates: Corning® 96 Well TC-Treated Microplates, cat #CLS3894 • RPMI medium: ATCC® RPMI-1640 Medium, Cat #30-2001 • FBS: Fetal Bovine Serum, certified, United States Gibco, Thermo-Fisher 16000044 • GM-CSF: Recombinant Human GM-CSF Protein, R&D cat #215-GM • SCF: Recombinant Human SCF Protein, R&D cat #255-SC
• 1. Prepare cells: • a. Culture M-07e cells in RPMI medium+20% serum+GM-CSF+penstrep • To make 50 mL of growth medium • i. 40 mL RPMI media • ii. 10 mL FBS • iii. 10 uL of GM-CSF (100 ug/mL stock) • iv. 0.5 mL pen strep (100×) • b. Harvest cells • c. Re-suspend cells in 100% RPMI media (without serum) to final concentration of 1 million cells/mL • d. Transfer 100 uL of cell solution to 11 columns of a 96 well flat bottom cell culture plate • e. Incubate cells over night at 37 C • 2. Prepare ELISA Plates: • a. Dilute capture antibody to concentration 4 ug/mL in PBS • b. Coat 96 well microplates with 100 uL of capture antibody • c. Seal plates and incubate at RT overnight • d. Wash plates with 300 uL of wash buffer • e. Repeat wash • f. Treat plates with 300 uL of blocking buffer at RT for 1 hour • 3. Addition of compounds: • a. Prepare compound dilutions in RPMI media • i. Top test concentration is 1 uM • ii. Serially dilute compounds 3× for a total of 8 concentrations • b. Add 10 uL of 10× compound dilutions to cells • i. No compounds added in column 11 (for controls) • c. Incubate cells with compounds for 2 hours at 37 C • d. Stimulate cells with SCF for 5 min at concentration of 100 ng/mL (final) • i. In column 11 stimulate top 4 wells. Leave bottom 4 wells unstimulated • e. Remove cell culture media with multichannel pipet • f. Add 110 uL of Lysis buffer to all wells • g. Incubate plates at RT for 30 min while shaking • 4. Transfer 100 uL of cell lysis to each prepared Elisa plate • 5. Add 100 uL of the standard pc-KIT dilutions to the standard wells in column 12 • a. Top concentration=2000 pg/mL • b. 2× dilutions • 6. Incubate ELISA plate with cell lysate for 2 hours at RT • 7. Wash Plate with wash buffer (wash 1) • 8. Repeat wash (wash 2) • 9. […] Add 100 uL of diluted anti-pY-HRP (1/1000 dilution in detection antibody dilution buffer) and incubate 2 hours at RT • 11. Wash plate with wash buffer (wash 1) • 12. Repeat wash (wash 2) • 13. Repeat wash (wash 3) • 14. Add 100 uL of substrate solution to each well • 15. Incubate plates 20 min • Note: Plate development is indicated by aqua color • 16. Add 50 uL of stop solution to each well • 17. Determine optical density on Bitek Synergy Neo2: • a. Make new experiment
Select absorbance 1 set to 450 nm

Kinetic solubility assay = assay type: physicochemical; conditions: kinetic solubility, 50 mM PB (pH 7.4), shaken 24 hours at RT
Outline: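 Test compounds from 10 mM DMSO stock were diluted in 50 mM phosphate buffer, pH 7.4, and shaken for 24 h at RT. After PTFE filtration and centrifugation, filtrate concentration was quantified by UPLC-UV/HPLC-UV against a standard curve.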

CSF-1R = biological target: T2, CSF-1R (Homo sapiens, UniProt P07333); experiment: Caliper biochemical assay, CSF-1R; conditions: Table 6
T2 construct: purchased Invitrogen PV3249 (lot 662393N)
T2 sequence (P07333 20-972): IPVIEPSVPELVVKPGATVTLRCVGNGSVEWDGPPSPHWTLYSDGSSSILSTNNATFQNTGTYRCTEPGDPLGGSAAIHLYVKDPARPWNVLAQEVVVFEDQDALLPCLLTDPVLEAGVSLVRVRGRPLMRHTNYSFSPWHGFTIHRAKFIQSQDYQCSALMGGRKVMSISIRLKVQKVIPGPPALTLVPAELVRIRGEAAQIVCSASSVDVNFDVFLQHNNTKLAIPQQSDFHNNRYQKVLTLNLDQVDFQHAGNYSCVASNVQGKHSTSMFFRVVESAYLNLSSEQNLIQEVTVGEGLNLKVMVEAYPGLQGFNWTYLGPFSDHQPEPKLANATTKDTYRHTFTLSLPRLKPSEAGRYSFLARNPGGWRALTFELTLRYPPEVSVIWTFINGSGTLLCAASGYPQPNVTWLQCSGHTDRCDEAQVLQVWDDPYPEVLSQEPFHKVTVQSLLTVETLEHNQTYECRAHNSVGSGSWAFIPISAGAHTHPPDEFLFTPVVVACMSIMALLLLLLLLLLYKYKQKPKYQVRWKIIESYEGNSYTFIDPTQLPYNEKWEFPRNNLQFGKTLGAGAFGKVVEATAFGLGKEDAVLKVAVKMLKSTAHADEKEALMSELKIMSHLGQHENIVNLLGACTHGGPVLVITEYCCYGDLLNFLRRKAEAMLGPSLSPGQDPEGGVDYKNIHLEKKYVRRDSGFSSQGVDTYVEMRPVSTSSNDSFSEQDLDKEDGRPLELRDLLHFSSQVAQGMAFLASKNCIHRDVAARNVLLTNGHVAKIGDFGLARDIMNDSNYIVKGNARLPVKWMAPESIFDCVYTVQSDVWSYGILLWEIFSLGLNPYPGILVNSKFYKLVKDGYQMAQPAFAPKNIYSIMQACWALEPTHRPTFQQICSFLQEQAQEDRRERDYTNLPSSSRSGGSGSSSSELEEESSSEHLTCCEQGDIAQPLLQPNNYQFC
Outline: (§1)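 Kinase, FAM-labelled peptide substrate, ATP and Mn^2+ incubated with compound for 3 h at 25° C, then quenched with EDTA buffer. Substrate and phosphorylated product separated by microfluidic electrophoresis and quantified by fluorescence intensity; no-enzyme wells define 100% inhibition.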

PDGFRα = biological target: T3, PDGFRα (Homo sapiens, UniProt P16234); experiment: Caliper biochemical assay, PDGFRα; conditions: Table 6
T3 construct: purchased Millipore 14-467 (lot 26321_ACTI)
T3 sequence (P16234 24-1089): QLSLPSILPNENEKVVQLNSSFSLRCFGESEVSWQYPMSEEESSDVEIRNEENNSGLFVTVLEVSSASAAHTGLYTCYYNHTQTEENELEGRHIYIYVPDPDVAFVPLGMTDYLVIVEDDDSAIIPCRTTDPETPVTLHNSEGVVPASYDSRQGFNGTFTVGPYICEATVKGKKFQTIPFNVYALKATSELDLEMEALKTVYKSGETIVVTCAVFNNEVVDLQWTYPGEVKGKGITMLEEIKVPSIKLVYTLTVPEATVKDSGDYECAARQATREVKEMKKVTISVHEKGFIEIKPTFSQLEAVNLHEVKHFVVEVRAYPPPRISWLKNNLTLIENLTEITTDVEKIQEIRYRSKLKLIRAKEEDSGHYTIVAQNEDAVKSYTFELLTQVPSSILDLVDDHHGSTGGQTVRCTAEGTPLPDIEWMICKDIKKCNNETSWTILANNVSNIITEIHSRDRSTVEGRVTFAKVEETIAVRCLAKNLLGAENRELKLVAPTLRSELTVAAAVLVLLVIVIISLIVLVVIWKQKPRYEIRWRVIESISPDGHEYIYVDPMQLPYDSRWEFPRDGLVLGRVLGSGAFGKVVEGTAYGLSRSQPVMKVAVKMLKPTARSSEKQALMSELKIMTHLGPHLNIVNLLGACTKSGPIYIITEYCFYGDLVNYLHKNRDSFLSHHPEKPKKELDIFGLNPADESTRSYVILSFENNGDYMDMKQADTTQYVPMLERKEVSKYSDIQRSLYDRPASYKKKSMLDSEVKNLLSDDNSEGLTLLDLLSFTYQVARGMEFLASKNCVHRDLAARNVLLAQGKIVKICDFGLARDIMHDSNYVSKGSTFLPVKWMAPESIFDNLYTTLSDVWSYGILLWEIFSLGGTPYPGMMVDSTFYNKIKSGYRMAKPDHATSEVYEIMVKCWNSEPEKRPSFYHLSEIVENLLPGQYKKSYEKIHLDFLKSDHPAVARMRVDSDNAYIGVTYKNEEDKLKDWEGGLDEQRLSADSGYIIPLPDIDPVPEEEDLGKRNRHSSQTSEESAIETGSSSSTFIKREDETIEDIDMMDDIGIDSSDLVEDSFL
Outline: as §1

[4] = biological target: T4, BCRP (BCRP-MDCKII monolayer) (Homo sapiens, UniProt Q9UNQ0); experiment: MDCKII-BCRP bidirectional transport assay; assay type: in vitro ADME
T4 construct: host or cells: MDCKII (canine kidney) cells
T4 sequence (Q9UNQ0 1-655): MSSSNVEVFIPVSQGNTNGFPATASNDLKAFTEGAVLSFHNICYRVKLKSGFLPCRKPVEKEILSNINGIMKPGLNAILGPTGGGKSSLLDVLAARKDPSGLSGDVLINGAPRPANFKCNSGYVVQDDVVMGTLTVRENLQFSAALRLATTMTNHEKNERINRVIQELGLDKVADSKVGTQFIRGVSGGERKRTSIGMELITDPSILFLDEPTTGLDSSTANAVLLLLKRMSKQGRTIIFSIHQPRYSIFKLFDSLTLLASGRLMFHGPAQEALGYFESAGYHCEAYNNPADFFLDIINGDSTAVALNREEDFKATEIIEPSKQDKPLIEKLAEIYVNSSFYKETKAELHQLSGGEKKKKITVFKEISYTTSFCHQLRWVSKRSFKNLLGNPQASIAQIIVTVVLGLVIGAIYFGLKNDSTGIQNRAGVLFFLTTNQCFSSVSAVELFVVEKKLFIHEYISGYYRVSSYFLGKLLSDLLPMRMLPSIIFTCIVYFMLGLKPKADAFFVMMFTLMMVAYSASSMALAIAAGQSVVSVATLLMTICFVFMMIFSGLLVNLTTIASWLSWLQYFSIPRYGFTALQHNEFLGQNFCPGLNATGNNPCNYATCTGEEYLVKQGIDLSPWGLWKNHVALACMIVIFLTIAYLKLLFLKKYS
Outline: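 Bidirectional A→B and B→A transport across PreadyPort BCRP-MDCKII monolayers (days 12–15) was run in duplicate for 120 min at 37° C, 5% CO2 after a 15 min preincubation. Compound levels were measured by LC-MS/MS. Papp and recovery were calculated, with efflux ratio indicating transporter engagement.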

T1 sequence (P10721 26-976): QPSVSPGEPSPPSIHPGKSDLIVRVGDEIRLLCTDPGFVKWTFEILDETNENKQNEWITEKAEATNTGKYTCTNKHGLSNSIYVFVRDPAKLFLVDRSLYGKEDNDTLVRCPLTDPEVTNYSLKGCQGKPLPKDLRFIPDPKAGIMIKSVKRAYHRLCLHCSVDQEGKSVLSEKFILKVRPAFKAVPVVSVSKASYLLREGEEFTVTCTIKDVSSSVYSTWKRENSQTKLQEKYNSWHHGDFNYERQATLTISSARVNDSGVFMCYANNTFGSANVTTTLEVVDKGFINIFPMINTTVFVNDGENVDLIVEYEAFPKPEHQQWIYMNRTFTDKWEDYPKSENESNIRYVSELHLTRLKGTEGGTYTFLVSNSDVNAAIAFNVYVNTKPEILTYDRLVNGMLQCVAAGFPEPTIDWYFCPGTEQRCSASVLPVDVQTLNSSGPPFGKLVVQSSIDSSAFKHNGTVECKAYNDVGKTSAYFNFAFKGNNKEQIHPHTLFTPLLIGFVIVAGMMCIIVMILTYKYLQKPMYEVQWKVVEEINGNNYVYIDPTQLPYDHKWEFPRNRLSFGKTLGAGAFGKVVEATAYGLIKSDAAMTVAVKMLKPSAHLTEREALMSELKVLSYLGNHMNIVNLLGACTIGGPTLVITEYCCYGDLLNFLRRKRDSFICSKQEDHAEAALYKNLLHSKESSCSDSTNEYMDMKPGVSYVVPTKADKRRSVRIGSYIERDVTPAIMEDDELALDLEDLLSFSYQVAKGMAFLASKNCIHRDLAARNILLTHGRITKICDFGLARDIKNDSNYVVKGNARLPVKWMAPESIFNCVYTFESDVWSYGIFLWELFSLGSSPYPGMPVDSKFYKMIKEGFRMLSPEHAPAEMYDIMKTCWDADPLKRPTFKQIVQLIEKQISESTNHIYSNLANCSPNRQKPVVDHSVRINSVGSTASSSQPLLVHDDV

Compound	IC50 (wtKIT [1]) [nM]	IC50 (wtKIT [2]) [nM]	IC50 [3] [nM]	Solubility (μM) (Kinetic solubility assay)	IC50 (CSF-1R) [nM]	IC50 (PDGFRα) [nM]	MDCK-BCRP: Efflux Ratio [4]	MDCK-BCRP: Papp A-B ([4]; apical to basolateral)
COC(=O)N1CC(c2nc(-c3ccc(C#N)c(NC(=O)c4cnc5ccccn45)c3)no2)C1 [Compound I-212]	50 to 500	50 to 500	50 to 500	*** (a solubility greater than 2 μM and less than or equal to 10 μM)				
CCCS(=O)(=O)N1CCC1c1nc(-c2ccc(C)c(NC(=O)c3cnc4ccccn34)c2)no1 (stereo not drawn) [Compound I-242]	≤ 50	≤ 50	50 to 500	*** (a solubility greater than 2 μM and less than or equal to 10 μM)				
Cc1nc(-c2ccc(C)c(NC(=O)c3cnn4ccccc34)c2)no1 [Compound I-428]		≤ 50	≤ 50		500 to 5000	500 to 5000		
Cc1ccc(-c2noc(C[C@@H](C)O)n2)cc1NC(=O)c1cnc2cc(C(F)F)ccn12 [Compound I-83]			≤ 50	**** (a solubility less than or equal to 2 μM)			25.3	0.96 10^−6 cm/s
Cc1ccc(-c2noc([C@@H]3CC4(CC4)CN3)n2)cc1NC(=O)c1cnc2ccccn12 [Compound I-230]	≤ 50	≤ 50	≤ 50	** (a solubility greater than 10 μM and less than or equal to 50 μM)	≤ 50	50 to 500		
COC(=O)N1CC(c2nc(-c3ccc(C)c(NC(=O)c4cnc5cc(OCC(C)(C)O)ccn45)c3)no2)C1 [Compound I-261]	≤ 50	≤ 50	≤ 50	** (a solubility greater than 10 μM and less than or equal to 50 μM)	≤ 50	50 to 500		
COCc1ccn2c(C(=O)Nc3cc(-c4noc(C5CN(C(=O)OC)C5)n4)ccc3C)cnc2c1 [Compound I-140]		≤ 50	50 to 500	*** (a solubility greater than 2 μM and less than or equal to 10 μM)	50 to 500	5000 to 30000		
Cc1ccc(-c2noc(N3CCC(F)(F)CC3)n2)cc1NC(=O)c1cnc2ccccn12 [Compound I-214]	50 to 500	≤ 50	50 to 500	*** (a solubility greater than 2 μM and less than or equal to 10 μM)				
Cc1ccc(-c2noc(C3CC4(C3)CC(F)(F)C4)n2)cc1NC(=O)c1cnc2ccccn12 [Compound I-266]	≤ 50	≤ 50	≤ 50	**** (a solubility less than or equal to 2 μM)	≤ 50	50 to 500		
O=C(Nc1cc(-c2noc([C@@H]3CC(F)(F)CN3)n2)ccc1Cl)c1cnc2ccccn12 [Compound I-221]	50 to 500	≤ 50	50 to 500	**** (a solubility less than or equal to 2 μM)	50 to 500	5000 to 30000		
Cc1ccc(-c2noc(C3CC3(C)C)n2)cc1NC(=O)c1cnc2ccccn12 (stereo not drawn) [Compound I-127]		≤ 50	≤ 50		≤ 50	50 to 500		
Cc1ccc(-c2noc([C@@H]3CCN3S(=O)(=O)c3cccnc3)n2)cc1NC(=O)c1cnc2ccccn12 [Compound I-185]		≤ 50	≤ 50	**** (a solubility less than or equal to 2 μM)	≤ 50	50 to 500		
Cc1ccc(-c2noc([C@@H]3CCN3S(=O)(=O)c3cn(C)cn3)n2)cc1NC(=O)c1cnc2ccccn12 [Compound I-184]		≤ 50	500 to 5000	**** (a solubility less than or equal to 2 μM)	50 to 500	500 to 5000		
